Results published in patent US9453062B2, “Glucose dependent insulinotropic polypeptide analogs, pharmaceutical compositions and use thereof” (Beijing Hanmi Pharmaceutical Co., Ltd., priority 2011, dated 2016).
Read-outs that look alike come from different tables or passages of the source. Where a SMILES comes first, the peptide text is derived from it. Where no end group is shown, it is not given here. [ ]: non-standard residue; d: D form. Phe(4-NO2) = N[C@@H](Cc1ccc([N+](=O)[O-])cc1)C(=O)O; Met(O) = CS(=O)CC[C@H](N)C(=O)O; Phg = N[C@H](C(=O)O)c1ccccc1; Nle = CCCC[C@H](N)C(=O)O; Aib = CC(C)(N)C(=O)O

Assays:
hGLP-1R = molecular target: T1, hGLP-1R (Homo sapiens, UniProt P43220); assay: hGLP-1R-mediated cAMP induction assay in CHO cell line; format: cell-based;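 further: CHO cells expressing human GLP-1R, treated 30 min at 37 °C, intracellular cAMP measured by competitive fluorescent immunoassay and converted via a cAMP standard curve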
T1 construct: expressed in transfected cells; host or cells: CHO

hGIPR = molecular target: T2, hGIPR (Homo sapiens, UniProt P48546); assay: hGIPR-mediated cAMP induction assay in CHO cell line; format: cell-based; conditions: for GIP Receptor Relative Potency: against native GIP
T2 construct: expressed in transfected cells; host or cells: CHO
T2 sequence (P48546 22-466): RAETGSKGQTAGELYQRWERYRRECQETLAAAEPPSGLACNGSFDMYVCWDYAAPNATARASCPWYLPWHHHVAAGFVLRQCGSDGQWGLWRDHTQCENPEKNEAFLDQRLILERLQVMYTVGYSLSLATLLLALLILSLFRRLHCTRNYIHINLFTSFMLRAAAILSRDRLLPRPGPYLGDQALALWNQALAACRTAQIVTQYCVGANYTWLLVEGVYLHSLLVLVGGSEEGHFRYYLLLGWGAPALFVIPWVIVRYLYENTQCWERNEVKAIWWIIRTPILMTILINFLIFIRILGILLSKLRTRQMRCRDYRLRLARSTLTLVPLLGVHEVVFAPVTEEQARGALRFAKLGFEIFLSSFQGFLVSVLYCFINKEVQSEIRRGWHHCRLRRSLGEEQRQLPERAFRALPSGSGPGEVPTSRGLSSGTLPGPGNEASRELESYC

T1 sequence (P43220 24-463): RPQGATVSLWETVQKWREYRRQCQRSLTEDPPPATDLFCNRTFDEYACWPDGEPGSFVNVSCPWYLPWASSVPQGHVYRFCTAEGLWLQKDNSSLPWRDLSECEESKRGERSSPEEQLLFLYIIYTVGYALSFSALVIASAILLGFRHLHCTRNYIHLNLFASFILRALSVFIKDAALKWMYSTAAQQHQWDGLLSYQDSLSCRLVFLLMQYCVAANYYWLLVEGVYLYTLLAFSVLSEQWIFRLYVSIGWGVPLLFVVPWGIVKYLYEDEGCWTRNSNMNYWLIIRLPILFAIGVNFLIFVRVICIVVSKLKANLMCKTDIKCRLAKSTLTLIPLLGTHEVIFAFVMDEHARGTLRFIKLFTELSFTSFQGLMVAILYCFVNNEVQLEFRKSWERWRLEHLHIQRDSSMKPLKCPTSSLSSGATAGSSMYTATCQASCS

Tyr-Aib-Glu-Gly-Thr-Phe-Thr-Ser-Asp-Tyr-Ser-Ile-Tyr-Met-Glu-Lys-Ile-His-Gln-Gln-Asp-Phe-Val-Asn-Trp-Leu-Leu-Ala-Gln(NH2) (Y[Aib]EGTFTSDYSIYMEKIHQQDFVNWLLAQ-NH2) [Analog 003]
GLP-1R activation (GLP-1 activity) against native GLP-1 (hGLP-1R): ~0.2%

CC[C@H](C)[C@H](NC(=O)[C@H](Cc1ccccc1)NC(=O)[C@H](CCC(=O)O)NC(=O)[C@H](CCC(=O)O)NC(=O)[C@@H](NC(=O)[C@H](C)NC(=O)[C@H](CCC(=O)O)NC(=O)[C@H](CCCCN)NC(=O)[C@H](CCC(=O)O)NC(=O)[C@H](CCSC)NC(=O)[C@H](Cc1ccc(O)cc1)NC(=O)[C@@H](NC(=O)[C@H](CO)NC(=O)[C@H](Cc1ccc(O)cc1)NC(=O)[C@H](CC(=O)O)NC(=O)[C@H](CO)NC(=O)[C@@H](NC(=O)[C@H](Cc1ccccc1)NC(=O)[C@@H](NC(=O)CNC(=O)[C@H](CCC(=O)O)NC(=O)C(C)(C)NC(=O)[C@@H](N)Cc1ccc(O)cc1)[C@@H](C)O)[C@@H](C)O)[C@@H](C)CC)C(C)C)C(=O)N[C@@H](C)C(=O)N[C@@H](Cc1c[nH]c2ccccc12)C(=O)N[C@@H](CC(C)C)C(=O)N[C@H](C(=O)N[C@@H](CCCCN)C(=O)NCC(N)=O)C(C)C [Compound 053-1] (H-Y[Aib]EGTFTSDYSIYMEKEAVEEFIAWLVKG-NH2; N-terminus assumed)
EC50 (hGIPR; Table 3, CHO hGIPR cells): 0.5 nM
GIP Receptor Relative Potency (hGIPR; Table 3): 34

CC[C@H](C)[C@H](NC(=O)[C@H](CO)NC(=O)[C@H](Cc1ccc(O)cc1)NC(=O)[C@H](CC(=O)O)NC(=O)[C@H](CO)NC(=O)[C@@H](NC(=O)[C@H](Cc1ccccc1)NC(=O)[C@@H](NC(=O)CNC(=O)[C@H](CCC(=O)O)NC(=O)C(C)(C)NC(=O)[C@@H](N)Cc1ccc(O)cc1)[C@@H](C)O)[C@@H](C)O)C(=O)N[C@@H](Cc1ccc([N+](=O)[O-])cc1)C(=O)N[C@@H](CC[S+](C)[O-])C(=O)N[C@@H](CCC(=O)O)C(=O)N[C@@H](CCCCN)C(=O)N[C@H](C(=O)N[C@@H](Cc1c[nH]cn1)C(=O)N[C@@H](CCC(N)=O)C(=O)N[C@@H](CCC(N)=O)C(=O)N[C@@H](CC(=O)O)C(=O)N[C@@H](Cc1ccccc1)C(=O)N[C@H](C(=O)N[C@@H](CC(N)=O)C(=O)N[C@@H](Cc1c[nH]c2ccccc12)C(=O)N[C@@H](CC(C)C)C(=O)N[C@@H](CC(C)C)C(=O)N[C@@H](C)C(=O)N[C@@H](CCC(N)=O)C(N)=O)C(C)C)[C@@H](C)CC (stereo partly shown) [Compound 005] (H-Y[Aib]EGTFTSDYSI[Phe(4-NO2)][Met(O)]EKIHQQDFVNWLLAQ-NH2)
EC50 (hGLP-1R): > 2000 nM

CCCC[C@H](NC(=O)[C@H](Cc1ccc(O)cc1)NC(=O)[C@@H](NC(=O)[C@H](CO)NC(=O)[C@H](Cc1ccc(O)cc1)NC(=O)[C@H](CC(=O)O)NC(=O)[C@H](CO)NC(=O)[C@@H](NC(=O)[C@H](Cc1ccccc1)NC(=O)[C@@H](NC(=O)CNC(=O)[C@H](CCC(=O)O)NC(=O)C(C)(C)NC(=O)[C@@H](N)Cc1ccc(O)cc1)[C@@H](C)O)[C@@H](C)O)[C@@H](C)CC)C(=O)N[C@@H](CCC(=O)O)C(=O)N[C@@H](CCCCN)C(=O)N[C@@H](CCC(=O)O)C(=O)N[C@@H](C)C(=O)N[C@@H](CCC(N)=O)C(=O)N[C@@H](CCC(N)=O)C(=O)N[C@@H](CC(=O)O)C(=O)N[C@@H](Cc1ccccc1)C(=O)N[C@H](C(=O)N[C@@H](CC(N)=O)C(=O)N[C@@H](Cc1c[nH]c2ccccc12)C(=O)N[C@@H](CC(C)C)C(=O)N[C@@H](CC(C)C)C(=O)N[C@@H](C)C(=O)N[C@@H](CCC(N)=O)C(N)=O)C(C)C [Compound 020] (H-Y[Aib]EGTFTSDYSIY[Nle]EKEAQQDFVNWLLAQ-NH2; N-terminus assumed)
EC50 (hGIPR): 0.27 nM
GIP Receptor Relative Potency (hGIPR; Table 3): 51.8

CCCC[C@H](NC(=O)[C@H](Cc1ccc(O)cc1)NC(=O)[C@@H](NC(=O)[C@H](CO)NC(=O)[C@H](Cc1ccc(O)cc1)NC(=O)[C@H](CC(=O)O)NC(=O)[C@H](CO)NC(=O)[C@@H](NC(=O)[C@H](Cc1ccccc1)NC(=O)[C@@H](NC(=O)CNC(=O)[C@H](CCC(=O)O)NC(=O)C(C)(C)NC(=O)[C@@H](N)Cc1ccc(O)cc1)[C@@H](C)O)[C@@H](C)O)[C@@H](C)CC)C(=O)N[C@@H](CCC(=O)O)C(=O)N[C@@H](CCCCN)C(=O)N[C@H](C(=O)N[C@@H](Cc1c[nH]cn1)C(=O)N[C@@H](CCC(N)=O)C(=O)N[C@@H](CCC(N)=O)C(=O)N[C@@H](CC(=O)O)C(=O)N[C@@H](Cc1ccccc1)C(=O)N[C@H](C(=O)N[C@@H](CC(N)=O)C(=O)N[C@@H](Cc1c[nH]c2ccccc12)C(=O)N[C@@H](CC(C)C)C(=O)N[C@H](C(=O)N[C@@H](CCCNC(=N)N)C(=O)N[C@@H](CCC(N)=O)C(N)=O)C(C)C)C(C)C)[C@@H](C)CC [Compound 021] (H-Y[Aib]EGTFTSDYSIY[Nle]EKIHQQDFVNWLVRQ-NH2; N-terminus assumed)
GIP Receptor Relative Potency (hGIPR; Table 3): 21.7

CCCC[C@H](NC(=O)[C@@H](NC(=O)[C@@H](NC(=O)[C@H](CO)NC(=O)[C@H](Cc1ccc(O)cc1)NC(=O)[C@H](CC(=O)O)NC(=O)[C@H](CO)NC(=O)[C@@H](NC(=O)[C@H](Cc1ccccc1)NC(=O)[C@@H](NC(=O)CNC(=O)[C@H](CCC(=O)O)NC(=O)C(C)(C)NC(=O)[C@@H](N)Cc1ccc(O)cc1)[C@@H](C)O)[C@@H](C)O)[C@@H](C)CC)c1ccccc1)C(=O)N[C@@H](CCC(=O)O)C(=O)N[C@@H](CCCCN)C(=O)N[C@H](C(=O)N[C@@H](Cc1c[nH]cn1)C(=O)N[C@@H](CCC(N)=O)C(=O)N[C@@H](CCC(N)=O)C(=O)N[C@@H](CC(=O)O)C(=O)N[C@@H](Cc1ccccc1)C(=O)N[C@H](C(=O)N[C@@H](CC(N)=O)C(=O)N[C@@H](Cc1c[nH]c2ccccc12)C(=O)N[C@@H](CC(C)C)C(=O)N[C@@H](CC(C)C)C(=O)N[C@@H](C)C(=O)N[C@@H](CCC(N)=O)C(N)=O)C(C)C)[C@@H](C)CC [Compound 009] (H-Y[Aib]EGTFTSDYSI[Phg][Nle]EKIHQQDFVNWLLAQ-NH2; N-terminus assumed)
EC50 (hGLP-1R): > 2000 nM

CC[C@H](C)[C@H](NC(=O)[C@H](CO)NC(=O)[C@H](Cc1ccc(O)cc1)NC(=O)[C@H](CC(=O)O)NC(=O)[C@H](CO)NC(=O)[C@@H](NC(=O)[C@H](Cc1ccccc1)NC(=O)[C@@H](NC(=O)CNC(=O)[C@H](CCC(=O)O)NC(=O)C(C)(C)NC(=O)[C@@H](N)Cc1ccc(O)cc1)[C@@H](C)O)[C@@H](C)O)C(=O)N[C@@H](Cc1ccc(O)cc1)C(=O)N[C@@H](CCSC)C(=O)N[C@@H](CCC(=O)O)C(=O)N[C@@H](CCCCN)C(=O)N[C@H](C(=O)N[C@@H](Cc1c[nH]cn1)C(=O)N[C@@H](CCC(N)=O)C(=O)N[C@@H](CCC(N)=O)C(=O)N[C@@H](CC(=O)O)C(=O)N[C@@H](Cc1ccccc1)C(=O)N[C@H](C(=O)N[C@@H](CC(N)=O)C(=O)N[C@@H](Cc1c[nH]c2ccccc12)C(=O)N[C@@H](CC(C)C)C(=O)N[C@@H](CC(C)C)C(=O)N[C@@H](C)C(=O)N[C@@H](CCC(N)=O)C(N)=O)C(C)C)[C@@H](C)CC [Compound 003] (H-Y[Aib]EGTFTSDYSIYMEKIHQQDFVNWLLAQ-NH2; N-terminus assumed)
GIP Receptor Relative Potency (hGIPR; Table 3): 77.7

CC[C@H](C)[C@H](NC(=O)[C@H](Cc1ccccc1)NC(=O)[C@H](CCC(=O)O)NC(=O)[C@H](CCCCN)NC(=O)[C@@H](NC(=O)[C@H](C)NC(=O)[C@H](CCC(=O)O)NC(=O)[C@H](CCCCN)NC(=O)[C@H](CCC(=O)O)NC(=O)[C@H](CCSC)NC(=O)[C@H](Cc1ccc(O)cc1)NC(=O)[C@@H](NC(=O)[C@H](CO)NC(=O)[C@H](Cc1ccc(O)cc1)NC(=O)[C@H](CC(=O)O)NC(=O)[C@H](CO)NC(=O)[C@@H](NC(=O)[C@H](Cc1ccccc1)NC(=O)[C@@H](NC(=O)CNC(=O)[C@H](CCC(=O)O)NC(=O)C(C)(C)NC(=O)[C@@H](N)Cc1ccc(O)cc1)[C@@H](C)O)[C@@H](C)O)[C@@H](C)CC)C(C)C)C(=O)N[C@@H](C)C(=O)N[C@@H](Cc1c[nH]c2ccccc12)C(=O)N[C@@H](CC(C)C)C(=O)N[C@H](C(=O)N[C@@H](CCCCN)C(=O)NCC(N)=O)C(C)C [Compound 057] (H-Y[Aib]EGTFTSDYSIYMEKEAVKEFIAWLVKG-NH2; N-terminus assumed)
EC50 (hGIPR; Table 3, CHO hGIPR cells): 0.57 nM
GIP Receptor Relative Potency (hGIPR; Table 3): 36.8

Tyr-Ala-Glu-Gly-Thr-Phe-Ile-Ser-Asp-Tyr-Ser-Ile-Ala-Met-Asp-Lys-Ile-His-Gln-Gln-Asp-Phe-Val-Asn-Trp-Leu-Leu-Ala-Gln(NH2) (YAEGTFISDYSIAMDKIHQQDFVNWLLAQ-NH2; listed as Homo sapiens) [GIP (1-29), initial scaffold, reference compound]
GIPR activation in vitro, in words (hGIPR; cAMP induction, liraglutide up to 1 μM): equivalent GIPR activation in vitro to that of the full-length GIP (1-42)

Tyr-Aib-Glu-Gly-Thr-Phe-Thr-Ser-Asp-Tyr-Ser-Ile-Tyr-Nle-Glu-Lys-Glu-Ala-Gln-Gln-Asp-Phe-Val-Asn-Trp-Leu-Leu-Ala-Gln(NH2) (Y[Aib]EGTFTSDYSIY[Nle]EKEAQQDFVNWLLAQ-NH2) [Analog 020]
GLP-1R activation (GLP-1 activity) against native GLP-1 (hGLP-1R): less than 1%
